Test system: BMMC cells
Assay: C-13 toxicity test on BMMC cells (Annexin-V and Propidium Iodide)
Type: cell-based
Settings: mouse
Protocol: FIG. 10. Toxicity test of C-13 on BMMC cells. The BMMC cells were incubated at 37° C. in the presence of 2.5 μM or 5 μM of C-13, 0.25% DMF or Staurosporine. The percentages of live BMMC cells after 3 hours and after 5 days were detected by means of double Annexin-V and Propidium Iodide labelling. The viability of BMMC cells incubated in the presence of 2.5 μM or 5 μM of C-13 or 0.25% DMF was not affected to noteworthy degree after 3 hours (78%, 74% and 79% respectively) or five days (62, 56 and 57%, respectively). On the other hand, the viability of BMMC cells treated under the same conditions with Staurosporine was reduced to a level of 16% after only 3 hours.
• 1) Chemical products and antibodies. A chemical bank of 3000 molecules (a varied subset) was acquired from ChemBridge, Inc. (San Diego, Calif.). Stocks of solutions of small molecules were prepared at a rate of 10 mM in DMSO (dimethylsulphoxide), except for C-13 (methyl 2-{5-[(3-benzyl-4-oxo-2-thioxo-1,3-thiazolidin-5-ylidene)methyl]-2-furyl}benzoate, ChemBridge ID No. 6197026) prepared in DMF (dimethylformamide). Unless specified otherwise, all the reagents were supplied by Sigma. Dinitrophenyl (DNP) hapten was acquired from Calbiochem. Sepharose GammaBind G and all the secondary antibodies were supplied by GE Health Amersham Biosciences. The anti-Syk, anti-Lyn, anti-Btk, anti-PLC-γ1, anti-PLC-γ2, anti-LAT, anti-SLP-76, anti-p38, anti-JNK, anti-Vav, anti-Akt1 and 9E10 antibodies conjugated with HRP were acquired from Santa Cruz Biotechnology. The anti-phospho-p44/42 MAP Kinase, anti-p44/42 MAP Kinase, anti-phospho-p38, anti-phospho-JNK, anti-phospho-Akt1 antibodies were acquired from Cell Signaling. The anti-phospho-LAT and anti-phospho-PLC-γ1 antibodies were supplied by Biosource and the anti-phospho-SLP-76 antibodies by BD Pharmingen. The 4G10 anti-phosphotyrosine monoclonal antibody was acquired from Upstate Biotechnology. • 2) ADA method: ELISA type high-speed molecule screening test, based on antibody displacement (WO 2005106481). The recombinant fusion protein GST:Syk 6-242^8 comprising the residues 6 to 242 of murine Syk tyrosine kinase protein illustrated in FIG. 8B (SEQ ID No. 4) was immobilised on an ELISA plate at a final concentration of 10 μg ml^−1. For the screening of the chemical molecule bank, the small molecules, diluted in PBS at a final concentration of 10 μM were added to the wells for one hour at ambient temperature, before adding the fragment scFv G4G11 at a final concentration of 100 nM for an additional hour. The binding of G4G11 with Syk was assessed by adding the 9E10 monoclonal antibody conjugated with HRP detecting the amino acid sequence EQKLISEEDLN of human c-myc protein located at the C-terminal end of the scFv fragment. To generate Syk mutants, targeted mutagenesis was used on GST:Syk 6-242 protein and the binding of G4G11 with the mutants was assessed in the presence of 5 μM of C-13. • 3) Cells, culture conditions and functional tests. Anti-DNP 2682-I mouse monoclonal antibody was used as the culture supernatant of hybridomas containing 1 μg/ml of IgE. Femoral bone marrow cells were sampled and cultured in Opti-MEM medium (Gibco) supplemented with 10% foetal calf serum and 4% X63 transfectant supernatant secreting murine IL-3. RBL-2H3 (ATCC) leukaemic rat basophil cells were maintained in a single-layer culture in RPMI 1640 medium supplemented with 10% foetal calf serum (Gibco). […]

COC(=O)c1ccccc1-c1ccc(/C=C2/SC(=S)N(Cc3ccccc3)C2=O)o1 [Molecule C-13, methyl 2-{5-[(3-benzyl-4-oxo-2-thioxo-1,3-thiazolidin-5-ylidene)methyl]-2-furyl}benzoate]
percentage of live BMMC cells (3 h, 2.5 μM): 78%
percentage of live BMMC cells (3 h, 5 μM): 74%
percentage of live BMMC cells (5 days, 2.5 μM): 62%
percentage of live BMMC cells (5 days, 5 μM): 56%

From patent US9504676B2, “Molecules inhibiting a metabolic pathway involving the Syk protein tyrosine kinase and method for identifying said molecules” (CENTRE NATIONAL DE LA RECHERCHE SCIENTIFIQUE, priority 2008, dated 2016)
